From ChEMBL document CHEMBL3885881, “DrugMatrix”

Organism: Rattus norvegicus
Test: DrugMatrix - Regimen: Daily Repeat
Format: toxicity, organism-based, Sprague-Dawley
Set-up: regimen Daily Repeat, gender Male, age 6-8 weeks
Conditions: in vivo, po, route oral GAVAGE, […]; for TOTAL PROTEIN / ALANINE AMINOTRANSFERASE / ALBUMIN / ALKALINE PHOSPHATASE / ASPARTATE AMINOTRANSFERASE / BLOOD UREA NITROGEN / CARBON DIOXIDE / CHLORIDE / CHOLESTEROL / CREATINE PHOSPHOKINASE / CREATININE / GLUCOSE / LACTATE DEHYDROGENASE / LIPASE / PHOSPHORUS / POTASSIUM / SODIUM / TOTAL BILIRUBIN: tissue Plasma; for ABSOLUTE BASOPHIL / ABSOLUTE EOSINOPHIL / ABSOLUTE LYMPHOCYTE / ABSOLUTE MONOCYTE / ABSOLUTE SEGMENTED NEUTROPHIL / BASOPHIL / EOSINOPHIL / ERYTHROCYTE COUNT / HEMATOCRIT / HEMOGLOBIN / LEUKOCYTE COUNT / LYMPHOCYTE / MEAN CORPUSCULAR HEMOGLOBIN / MEAN CORPUSCULAR HEMOGLOBIN CONCENTRATION / MEAN CORPUSCULAR VOLUME / MONOCYTE / NEUTROPHIL / NUCLEATED RED BLOOD CELLS / PLATELET COUNT: tissue Blood
[1] = 40 mg/kg, 120 h, dose level Low, time 5 day
[2] = 90 mg/kg, 72 h, dose level High, time 3 day
[3] = 90 mg/kg, 120 h, dose level High, time 5 day

SMILES: CN(C)CCCC1(c2ccc(F)cc2)OCc2cc(C#N)ccc21 (stereo not given) [CITALOPRAM]
- TOTAL PROTEIN (40 mg/kg, 72 h, dose level Low, time 3 day): 4.8 G/DL
- ABSOLUTE BASOPHIL [1]: 0 CELLS/uL
- ABSOLUTE EOSINOPHIL [1]: 0 CELLS/uL
- ABSOLUTE LYMPHOCYTE [1]: 8782.67 CELLS/uL
- ABSOLUTE MONOCYTE [1]: 193 CELLS/uL
- ABSOLUTE SEGMENTED NEUTROPHIL [1]: 424.33 CELLS/uL
- BASOPHIL [1]: 0%
- EOSINOPHIL [1]: 0%
- ERYTHROCYTE COUNT [1]: 5.43 x10E6/uL
- HEMATOCRIT [1]: 34.67%
- HEMOGLOBIN [1]: 13.13 G/DL
- LEUKOCYTE COUNT [1]: 9.4 x10E3/uL
- LYMPHOCYTE [1]: 93.67%
- MEAN CORPUSCULAR HEMOGLOBIN [1]: 24.23 pg
- MEAN CORPUSCULAR HEMOGLOBIN CONCENTRATION [1]: 37.87 G/DL
- MEAN CORPUSCULAR VOLUME [1]: 63.9 fL
- MONOCYTE [1]: 2%
- NEUTROPHIL [1]: 4.33%
- NUCLEATED RED BLOOD CELLS [1]: 0 /100WBC
- PLATELET COUNT [1]: 1141.33 x10E3/uL
- ALANINE AMINOTRANSFERASE [1]: 63 u/L
- ALBUMIN [1]: 3.87 G/DL
- ALKALINE PHOSPHATASE [1]: 433.67 u/L
- ASPARTATE AMINOTRANSFERASE [1]: 95 u/L
- BLOOD UREA NITROGEN [1]: 10.67 mg/dL
- CARBON DIOXIDE [1]: 31.33 mmol/L
- CHLORIDE [1]: 100.67 MEQ/L
- CHOLESTEROL [1]: 73 mg/dL
- CREATINE PHOSPHOKINASE [1]: 389.67 u/L
- CREATININE [1]: 0.14 mg/dL
- GLUCOSE [1]: 160 mg/dL
- LACTATE DEHYDROGENASE [1]: 173.67 u/L
- LIPASE [1]: 10.67 u/L
- PHOSPHORUS [1]: 10.57 mg/dL
- POTASSIUM [1]: 5.68 MEQ/L
- SODIUM [1]: 145.67 MEQ/L
- TOTAL BILIRUBIN [1]: 0.1 mg/dL
- TOTAL PROTEIN [1]: 5.87 G/DL
- ABSOLUTE BASOPHIL [2]: 0 CELLS/uL
- ABSOLUTE EOSINOPHIL [2]: 0 CELLS/uL
- ABSOLUTE LYMPHOCYTE [2]: 13332.67 CELLS/uL
- ABSOLUTE MONOCYTE [2]: 32 CELLS/uL
- ABSOLUTE SEGMENTED NEUTROPHIL [2]: 868.67 CELLS/uL
- BASOPHIL [2]: 0%
- EOSINOPHIL [2]: 0%
- ERYTHROCYTE COUNT [2]: 5.39 x10E6/uL
- HEMATOCRIT [2]: 34.6%
- HEMOGLOBIN [2]: 13.63 G/DL
- LEUKOCYTE COUNT [2]: 14.23 x10E3/uL
- LYMPHOCYTE [2]: 93.67%
- MEAN CORPUSCULAR HEMOGLOBIN [2]: 25.3 pg
- MEAN CORPUSCULAR HEMOGLOBIN CONCENTRATION [2]: 39.4 G/DL
- MEAN CORPUSCULAR VOLUME [2]: 64.2 fL
- MONOCYTE [2]: 0.33%
- NEUTROPHIL [2]: 6%
- NUCLEATED RED BLOOD CELLS [2]: 0 /100WBC
- PLATELET COUNT [2]: 1096.33 x10E3/uL
- ALANINE AMINOTRANSFERASE [2]: 59.67 u/L
- ALBUMIN [2]: 3.87 G/DL
- ALKALINE PHOSPHATASE [2]: 376.33 u/L
- ASPARTATE AMINOTRANSFERASE [2]: 89 u/L
- BLOOD UREA NITROGEN [2]: 9.33 mg/dL
- CARBON DIOXIDE [2]: 26.67 mmol/L
- CHLORIDE [2]: 102.5 MEQ/L
- CHOLESTEROL [2]: 65.67 mg/dL
- CREATINE PHOSPHOKINASE [2]: 142.33 u/L
- CREATININE [2]: 0.11 mg/dL
- GLUCOSE [2]: 156 mg/dL
- LACTATE DEHYDROGENASE [2]: 214.33 u/L
- PHOSPHORUS [2]: 10.6 mg/dL
- POTASSIUM [2]: 6.1 MEQ/L
- SODIUM [2]: 145.75 MEQ/L
- TOTAL BILIRUBIN [2]: 0.2 mg/dL
- TOTAL PROTEIN [2]: 5.5 G/DL
- ABSOLUTE BASOPHIL [3]: 0 CELLS/uL
- ABSOLUTE EOSINOPHIL [3]: 0 CELLS/uL
- ABSOLUTE LYMPHOCYTE [3]: 14553.33 CELLS/uL
- ABSOLUTE MONOCYTE [3]: 322.67 CELLS/uL
- ABSOLUTE SEGMENTED NEUTROPHIL [3]: 1290.67 CELLS/uL
- BASOPHIL [3]: 0%
- EOSINOPHIL [3]: 0%
- ERYTHROCYTE COUNT [3]: 5.96 x10E6/uL
- HEMATOCRIT [3]: 37.47%
- HEMOGLOBIN [3]: 14.47 G/DL
- LEUKOCYTE COUNT [3]: 16.17 x10E3/uL
- LYMPHOCYTE [3]: 90.67%
- MEAN CORPUSCULAR HEMOGLOBIN [3]: 24.33 pg
- MEAN CORPUSCULAR HEMOGLOBIN CONCENTRATION [3]: 38.67 G/DL
- MEAN CORPUSCULAR VOLUME [3]: 62.9 fL
- MONOCYTE [3]: 2%
- NEUTROPHIL [3]: 7.33%
- NUCLEATED RED BLOOD CELLS [3]: 0 /100WBC
- PLATELET COUNT [3]: 1137 x10E3/uL
- ALANINE AMINOTRANSFERASE [3]: 40.33 u/L
- ALBUMIN [3]: 4 G/DL
- ALKALINE PHOSPHATASE [3]: 365 u/L
- ASPARTATE AMINOTRANSFERASE [3]: 81.67 u/L
- CARBON DIOXIDE [3]: 28.67 mmol/L
- CHLORIDE [3]: 100 MEQ/L
- CHOLESTEROL [3]: 70.33 mg/dL
- CREATINE PHOSPHOKINASE [3]: 309.67 u/L
- CREATININE [3]: 0.14 mg/dL
- GLUCOSE [3]: 179.33 mg/dL
- LACTATE DEHYDROGENASE [3]: 263 u/L
- LIPASE [3]: 10.67 u/L
- PHOSPHORUS [3]: 11.03 mg/dL
- POTASSIUM [3]: 5.22 MEQ/L
- SODIUM [3]: 145.33 MEQ/L
- TOTAL BILIRUBIN [3]: 0.13 mg/dL
- TOTAL PROTEIN [3]: 6.03 G/DL
